Source: patent publication US8435778B2, “Gene encoding lignan methyltransferase and use thereof” (Suntory Holdings Limited, priority 2010, dated 2013)

Tested on: AsOMT116
Test: Enzyme reaction of crude recombinant AsOMT116 with thujaplicatin and S-adenosylmethionine, product analysed by GC-MS
Type: biochemical, Anthrissus sylvestris
Settings: 0.01 mM substrate, 0.04 mM S-adenosylmethionine, about 3 mg crude enzyme from E. coli, pH 7.5, 30° C., one hour; product identified as 5-methylthujaplicatin by GC-MS
Description: To clarify the biochemical enzyme functions, the enzymes were expressed in Escherichia coli. Using the plasmid for expression of AsOMT116 Escherichia coli obtained above, Escherichia coli BL21 (DE3) strain was transformed in a conventional manner. The resulting transformants were inoculated in 4 ml of LB medium (10 g/l tryptone peptone, 5 g/l yeast extract, 1 g/l NaCl) containing 50 μg/ml of ampicillin followed by shake culture at 37° C. overnight. When the cells reached the stationary phase, 4 ml of the culture broth was inoculated into 80 ml of fresh medium of the same composition, followed by shake culture at 37° C. At the point when the cell turbidity (OD600) reached approximately 0.5, 0.5 mM IPTG in a final concentration was added to the cells, followed by shake culture at 18° C. for 20 hours.
The following procedures were all carried out at 4° C. The transformants cultured were collected by centrifugation (5,000×g, 10 minutes) and suspended by adding 1 ml/g cell of lysis buffer (20 mM HEPES buffer (pH 7.5), 14 mM β-mercaptoethanol). Subsequently, the suspension was ultrasonicated (15 secs.×8 times) and then centrifuged (15,000×g, 15 minutes). The supernatant (soluble fraction) obtained was recovered as a crude enzyme solution. The crude enzyme solution was used for enzyme analysis.
Conditions for the enzyme reaction are as follows. […]

## COc1cc(C[C@H]2COC(=O)[C@@H]2Cc2cc(O)c(O)c(OC)c2)ccc1O [thujaplicatin]
  lignan methylation activity (methylation of substrate by AsOMT116): specifically methylates the 5-position
